Structures are written as SMILES. Structures can show the parent of a compound that is named as a salt.

The subject of assay [1] is Platelet aggregation in dog PRP. Put plainly: In-Vitro Platelet Aggregation in PRP (ADP induced). It is filed as cell-based. The note with it: Canis lupus familiaris; for IC50: ADP 50 μm, 37° C.; for inhibition at 10 µM: ADP, test concentration 1 × 10^-5. On the procedure: In-Vitro Platelet Aggregation in PRP
(§1) Healthy male or female dogs were fasted for 8 hours prior to drawing blood; then 30 ml whole blood was collected using a butterfly needle and 30 cc plastic syringe with 3 ml of 0.129M buffered sodium citrate (3.8%). The syringe was rotated carefully as blood was drawn to mix the citrate. Platelet-rich plasma (PRP) was prepared by centrifugation at 975×g for 3.17 minutes at room temperature, allowing the centrifuge to coast to a stop without braking. The PRP was removed from the blood with a plastic pipette and placed in a plastic capped, 50 ml Corning conical sterile centrifuge tube which was held at room temperature. Platelet poor plasma (PPP) was prepared by centrifuging the remaining blood at 2000×g for 15 minutes at room temperature allowing the centrifuge to coast to a stop without braking. The PRP was adjusted with PPP to a count of 2-3×10^8 platelets per ml. 400 for 5-(p-cyanophenyl)pentanoic acid in Section C of Example 1.
as §1, with “400 μl of the PRP preparation and 50 μl of the compound to be tested or saline were preincubated” for “400”, “1 minute at 37° C.” for “5-(p-cyanophenyl)pentanoic acid”, “a BioData aggregometer (BioData, Horsham, Pa.). 50 μl” for “Section C”, “adenosine 5'diphosphate (ADP) (50 μm final concentration) was added to the cuvettes and the aggregation was monitored for 1 minute. All compounds are tested in duplicate. Results are calculated as follows:” for “Example 1.”
Percent of control=[(maximal OD minus initial OD of compound) divided by
(maximal OD minus initial OD of control saline)]×100. The %
inhibition=100-(percent of control).

The target of assay [2] is T1, fibrinogen binding to platelets (gpIIb/IIIa) (Homo sapiens, UniProt P05106+P08514).
T1 construct: endogenous in cells
T1 sequence (P08514 32-887 limits assumed): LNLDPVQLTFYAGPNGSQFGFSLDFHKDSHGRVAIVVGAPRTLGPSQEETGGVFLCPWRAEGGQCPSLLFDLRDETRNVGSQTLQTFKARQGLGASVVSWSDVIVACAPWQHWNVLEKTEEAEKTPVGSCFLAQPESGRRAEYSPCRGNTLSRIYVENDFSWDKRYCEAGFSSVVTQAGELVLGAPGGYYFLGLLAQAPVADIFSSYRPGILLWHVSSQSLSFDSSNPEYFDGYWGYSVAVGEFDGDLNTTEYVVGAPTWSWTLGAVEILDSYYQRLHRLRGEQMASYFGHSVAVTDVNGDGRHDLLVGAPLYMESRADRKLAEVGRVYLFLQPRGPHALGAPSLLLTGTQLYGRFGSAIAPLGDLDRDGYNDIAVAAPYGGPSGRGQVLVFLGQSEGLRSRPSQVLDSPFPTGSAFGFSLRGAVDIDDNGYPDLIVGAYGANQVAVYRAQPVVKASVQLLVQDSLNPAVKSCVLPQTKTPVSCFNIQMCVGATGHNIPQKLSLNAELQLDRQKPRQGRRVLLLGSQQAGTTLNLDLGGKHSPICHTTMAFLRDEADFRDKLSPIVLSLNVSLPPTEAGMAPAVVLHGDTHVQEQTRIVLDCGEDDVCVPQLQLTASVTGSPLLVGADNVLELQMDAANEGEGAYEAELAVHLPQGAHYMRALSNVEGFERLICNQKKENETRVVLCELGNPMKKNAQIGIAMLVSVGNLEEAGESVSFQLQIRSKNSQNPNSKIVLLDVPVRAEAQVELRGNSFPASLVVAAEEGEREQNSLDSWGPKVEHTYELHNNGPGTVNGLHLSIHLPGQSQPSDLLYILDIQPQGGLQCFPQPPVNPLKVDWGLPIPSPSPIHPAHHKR
T1 sequence (P08514 891-1039 partner limits assumed): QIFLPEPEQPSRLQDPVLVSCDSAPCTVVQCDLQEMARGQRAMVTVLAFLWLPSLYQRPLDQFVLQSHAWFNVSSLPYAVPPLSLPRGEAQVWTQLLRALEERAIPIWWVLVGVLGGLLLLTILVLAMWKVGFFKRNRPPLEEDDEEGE
T1 sequence (P05106 27-788): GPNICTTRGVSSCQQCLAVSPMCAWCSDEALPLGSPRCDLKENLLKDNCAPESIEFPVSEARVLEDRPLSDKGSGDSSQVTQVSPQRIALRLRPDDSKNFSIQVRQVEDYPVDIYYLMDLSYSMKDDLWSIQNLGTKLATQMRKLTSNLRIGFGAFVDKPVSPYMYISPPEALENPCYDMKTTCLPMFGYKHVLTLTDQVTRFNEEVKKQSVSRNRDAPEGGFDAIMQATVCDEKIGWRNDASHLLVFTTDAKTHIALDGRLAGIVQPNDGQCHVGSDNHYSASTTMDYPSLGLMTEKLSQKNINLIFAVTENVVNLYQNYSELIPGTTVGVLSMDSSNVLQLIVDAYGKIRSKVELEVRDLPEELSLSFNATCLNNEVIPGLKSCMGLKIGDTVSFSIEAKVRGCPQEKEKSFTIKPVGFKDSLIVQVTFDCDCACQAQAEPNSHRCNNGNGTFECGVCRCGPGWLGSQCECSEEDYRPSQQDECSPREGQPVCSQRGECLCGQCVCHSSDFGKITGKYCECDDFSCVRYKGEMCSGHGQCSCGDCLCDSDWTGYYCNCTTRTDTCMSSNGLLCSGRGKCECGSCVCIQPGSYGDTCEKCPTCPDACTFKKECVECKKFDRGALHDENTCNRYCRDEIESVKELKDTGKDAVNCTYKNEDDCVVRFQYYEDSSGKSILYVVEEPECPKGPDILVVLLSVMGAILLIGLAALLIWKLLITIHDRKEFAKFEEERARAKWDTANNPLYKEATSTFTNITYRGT
Kind of assay: Fibrinogen Binding Assay (125I-fibrinogen binding to ADP-activated platelets). The settings on record: ADP 10 μM, 125I-fibrinogen 0.3 μM, 40 min at 37° C., read-out: Human Fg binding IC50. As for the experimental part: Fibrinogen binding was performed essentially as described by Plow et al., Blood 70, 110-115 (1987). Briefly, blood from humans who had not been given any antiplatelet drugs in the previous two weeks was collected into 1/10th volume of CCD buffer (100 mM sodium citrates, 136 mM glucose, pH 6.5). The blood was centrifuged for 3 min at 1000×g and platelet rich plasma was transferred to a plastic tube with a plastic pipet and placed on ice. After 15 minutes, 1/2 volume of ice cold CCD buffer was added and the sample was centrifuged at 900×g for 10 min at 2° C. The supernatant was decanted and the platelet pellet was gently resuspended in 1/2 the original volume of ice cold modified Tyrode's buffer (137 mM NaCl, 2.6 mM KCl, 12 mM NaHCO3, 5.5 mM glucose, 15 mM HEPES, 0.5% BSA, pH 7.4). After incubating for 30 minutes at 37° C., the platelet count was adjusted to 4×10^8 platelets/ml with modified Tyrode's buffer. To test samples (final concentration=1×10^8 platelets/ml) were added in sequence: ADP (10 μM), CaCl2 (2 mM), test compound, and ^125 I-fibrinogen (0.3 μM) to the aforesaid final concentrations in a volume of 200 μl. The samples were incubated for 40 min at 37° C. and 50 μl aliquots were centrifuged at 8,000×g through a 20% sucrose solution (400 μl). The tubes were quick frozen and the tips containing the platelet pellet were cut and assayed for bound ^125 I-fibrinogen by gamma scintillation counting. Specific binding was determined in each test by subtracting from the total binding the amount of ^125 I-fibrinogen bound in the presence of a 60-fold excess of unlabeled fibrinogen.

Assay [3] relates to ex vivo collagen induced platelet aggregation. Put plainly: Inhibition of ex vivo collagen induced aggregation. It is filed as in vivo, dog (Beagle). The settings on record: dog, IV. As for the experimental part: INHIBITION OF EX VIVO COLLAGEN INDUCED AGGREGATION BY COMPOUNDS OF THE INVENTION
PURPOSE--The purpose of this assay is to determine the effects of antiplatelet compounds on ex vivo collagen induced platelet aggregation when administered either intravenously or orally to dogs.
Pretreatment (control) blood samples are drawn from either conscious or anesthetized dogs (Beagles) and centrifuged to prepare platelet rich plasma (PRP). Aggregatory response to collagen is measured in an aggregometer and used as Control. Compounds are administered, either intragasterically (either by capsule or stomach tube or intravenously. Blood samples are drawn at predetermined intervals after compound administration, PRP prepared and aggregation to collagen determined. Compound inhibition of aggregation is determined by comparing the aggregation response after compound administration to the pretreatment response. The study is continued for a maximum of 24 hours or until the platelet aggregation returns to control levels. (If aggregation is still inhibited after 7 hours, a blood sample is drawn the following morning and tested.) Duration of activity is determined by the length of time platelet aggregation is inhibited after compound administration.

A short description of assay [4]: Canine intravenous infusion model. It is filed as in vivo.

Consider `N=C(N)c1ccc(CCCCC(=O)N[C@@H](CC(=O)O)C(=O)NCCc2ccccc2)cc1` [3 S-[[5-[4-(aminoiminomethyl)phenyl]-1-oxopentyl]amino]-4-oxo-4-[(2-phenylethyl)amino]butanoic acid], for which the IC50 (in general, the concentration that inhibits the measured activity by half) was 1900 nM in assay [1] and 200 nM in assay [2]. Further, testing at 10 µM in assay [1] gave an inhibition of 100%.

As to `N=C(N)c1ccc(C#CCCC(=O)N[C@@H](CC(=O)O)C(=O)N[C@@H](Cc2ccccc2)C(=O)O)cc1` [N-[5-[4-(aminoiminomethyl)phenyl]-1-oxo-4-pentynyl]-N-L-α-aspartyl-L-phenylalanine], the values for the IC50 in assay [1] and in assay [2] were 90 nM and 6 nM, respectively. The inhibition (in general, the drop in the measured response relative to a control, in per cent) at 10 µM in assay [1] is 100%. In addition, the figures for the “Ex-vivo collagen induced aggregation, Max % Inhibition” value in assay [3] (0.005 mg/kg), in assay [3] (0.01 mg/kg) and in assay [3] (0.1 mg/kg) were 29%, 83% and 100%, respectively.

In assay [1], `N=C(N)c1ccc(/C=C/CCC(=O)N[C@@H](CC(=O)O)C(=O)N[C@@H](Cc2ccccc2)C(=O)O)cc1` [N-[5-[4-(aminoiminomethyl)phenyl]-1-oxo-4E-pentenyl]-N-L-α-aspartyl-L-phenylalanine] gave a concentration for half-maximal inhibition (IC50) of 82 nM and an inhibition at 10 µM of 100%. In assay [2], the IC50 was 7 nM.

Take `N=C(N)c1ccc(CCCCC(=O)N[C@@H](CC(=O)O)C(=O)N[C@@H](Cc2ccccc2)C(=O)O)cc1` [N-[N-[5-[4-(aminoiminomethyl)phenyl]-1-oxopentyl]-L-α-aspartyl]-L-phenylalanine]: the ED50 (usually the dose that gives a 50% effect, or the effect in half of the subjects) in assay [4] is 0.32 µg/kg/min.

Regarding `N=C(N)c1ccc(CCCCC(=O)N[C@@H](CC(=O)O)C(=O)N[C@@H](Cc2ccccc2)C(=O)O)cc1` [N-[N-[5-[4-aminoiminomethyl)phenyl-1-oxopentyl]-L-α-aspartyl]-L-phenylalanine, acetate salt], the IC50 in assay [1] came out at 53 nM; in assay [2], 8.3 nM. In assay [1], the inhibition at 10 µM worked out at 100%. Besides, the “Ex-vivo collagen induced aggregation, Max % Inhibition” value was 31% in assay [3] (0.003 mg/kg) and 84% in assay [3] (0.006 mg/kg).

As to `N=C(N)c1cccc(/C=C\CCCC(=O)N[C@@H](CC(=O)O)C(=O)N[C@@H](Cc2ccccc2)C(=O)O)c1` [N-[N-[6-[3-(aminoiminomethyl)phenyl]-1-oxo-5Z-hexenyl]-L-α-aspartyl]-L-phenylalanine], in assay [1], the IC50 amounted to 4300 nM and 10 µM produced 100% inhibition. Moreover, the IC50 in assay [2] worked out at 600 nM.

These data come from patent publication US5481021A, “Phenyl amidines derivatives useful as platelet aggregation inhibitors” (G. D. Searle & Co., priority 1994, dated 1996).
